Laboratory results taken from PubChem BioAssay (NCI).
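GI50: concentration for 50% inhibition of growth. TGI: concentration producing complete growth inhibition.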

Key:
Experiment in all cases: inhibition of tumour cell growth, NCI panel, 384-well format
PC-3 prostate = system: PC-3 prostate
TK-10 renal = system: TK-10 renal
SK-MEL-28 melanoma = system: SK-MEL-28 melanoma
HCT-15 colon = system: HCT-15 colon
CAKI-1 renal = system: CAKI-1 renal
OVCAR-5 ovarian = system: OVCAR-5 ovarian
BT-549 breast = system: BT-549 breast
SF-539 CNS = system: SF-539 CNS
HT29 colon = system: HT29 colon
UACC-62 melanoma = system: UACC-62 melanoma
MDA-MB-468 breast = system: MDA-MB-468 breast
NCI-H522 lung = system: NCI-H522 lung
A498 renal = system: A498 renal
UACC-257 melanoma = system: UACC-257 melanoma
OVCAR-8 ovarian = system: OVCAR-8 ovarian
NCI-H23 lung = system: NCI-H23 lung
DU-145 prostate = system: DU-145 prostate
CCRF-CEM leukemia = system: CCRF-CEM leukemia
NCI-H226 lung = system: NCI-H226 lung
U251 glioblastoma = system: U251 glioblastoma
ACHN renal = system: ACHN renal
HCC-2998 colon = system: HCC-2998 colon
RXF 393 renal = system: RXF 393 renal
RPMI-8226 leukemia = system: RPMI-8226 leukemia
MALME-3M melanoma = system: MALME-3M melanoma
SF-295 CNS = system: SF-295 CNS
A549 NSCLC = system: A549 NSCLC
HOP-62 NSCLC = system: HOP-62 NSCLC
MDA-MB-231 breast = system: MDA-MB-231 breast
HL-60(TB) leukemia = system: HL-60(TB) leukemia
SN12C renal = system: SN12C renal
KM12 colon = system: KM12 colon
SNB-75 CNS = system: SNB-75 CNS
SR leukemia = system: SR leukemia
NCI/ADR-RES ovarian = system: NCI/ADR-RES ovarian
MCF7 breast = system: MCF7 breast
SK-OV-3 ovarian = system: SK-OV-3 ovarian
NCI-H460 NSCLC = system: NCI-H460 NSCLC
EKVX NSCLC = system: EKVX NSCLC
OVCAR-3 ovarian = system: OVCAR-3 ovarian
NCI-H322M lung = system: NCI-H322M lung
IGROV1 ovarian = system: IGROV1 ovarian
OVCAR-4 ovarian = system: OVCAR-4 ovarian
T-47D breast = system: T-47D breast
COLO 205 colon = system: COLO 205 colon
SK-MEL-5 melanoma = system: SK-MEL-5 melanoma
HOP-92 NSCLC = system: HOP-92 NSCLC
SF-268 CNS = system: SF-268 CNS
SNB-19 CNS = system: SNB-19 CNS
MOLT-4 leukemia = system: MOLT-4 leukemia
SK-MEL-2 melanoma = system: SK-MEL-2 melanoma
M14 melanoma = system: M14 melanoma
MDA-MB-435 melanoma = system: MDA-MB-435 melanoma
786-0 renal = system: 786-0 renal
SW-620 colon = system: SW-620 colon
HS 578T breast = system: HS 578T breast

**Q.** Which GI50 (PC-3 prostate) does the source give for `NCC(=O)CCC(=O)O` here?
**A.** > 100 µM

**Q.** And the TGI (PC-3 prostate)?
**A.** > 100 µM

**Q.** And the GI50 (TK-10 renal)?
**A.** > 100 µM

**Q.** What about the TGI (TK-10 renal) of the same compound?
**A.** > 100 µM

**Q.** What about the GI50 (SK-MEL-28 melanoma) of the same compound?
**A.** > 100 µM

**Q.** And the TGI (SK-MEL-28 melanoma)?
**A.** > 100 µM

**Q.** And the GI50 (HCT-15 colon)?
**A.** > 100 µM

**Q.** What about the TGI (HCT-15 colon) of the same compound?
**A.** > 100 µM

**Q.** What about the GI50 (CAKI-1 renal) of the same compound?
**A.** > 100 µM

**Q.** What about the TGI (CAKI-1 renal) of the same compound?
**A.** > 100 µM

**Q.** And the GI50 (OVCAR-5 ovarian)?
**A.** > 100 µM

**Q.** What about the TGI (OVCAR-5 ovarian) of the same compound?
**A.** > 100 µM

**Q.** And the GI50 (BT-549 breast)?
**A.** > 100 µM

**Q.** And the TGI (BT-549 breast)?
**A.** > 100 µM

**Q.** And the GI50 (SF-539 CNS)?
**A.** > 100 µM

**Q.** What about the TGI (SF-539 CNS) of the same compound?
**A.** > 100 µM

**Q.** What about the GI50 (HT29 colon) of the same compound?
**A.** > 100 µM

**Q.** What about the TGI (HT29 colon) of the same compound?
**A.** > 100 µM

**Q.** And the GI50 (UACC-62 melanoma)?
**A.** > 100 µM

**Q.** And the TGI (UACC-62 melanoma)?
**A.** > 100 µM

**Q.** What about the GI50 (MDA-MB-468 breast) of the same compound?
**A.** 26.7 µM

**Q.** And the TGI (MDA-MB-468 breast)?
**A.** 74.7 µM

**Q.** And the GI50 (NCI-H522 lung)?
**A.** > 100 µM

**Q.** What about the TGI (NCI-H522 lung) of the same compound?
**A.** > 100 µM

**Q.** And the GI50 (A498 renal)?
**A.** > 100 µM

**Q.** What about the TGI (A498 renal) of the same compound?
**A.** > 100 µM

**Q.** And the GI50 (UACC-257 melanoma)?
**A.** > 100 µM

**Q.** What about the TGI (UACC-257 melanoma) of the same compound?
**A.** > 100 µM

**Q.** And the GI50 (OVCAR-8 ovarian)?
**A.** > 100 µM

**Q.** What about the TGI (OVCAR-8 ovarian) of the same compound?
**A.** > 100 µM

**Q.** And the GI50 (NCI-H23 lung)?
**A.** > 100 µM

**Q.** And the TGI (NCI-H23 lung)?
**A.** > 100 µM

**Q.** What about the GI50 (DU-145 prostate) of the same compound?
**A.** > 100 µM

**Q.** And the TGI (DU-145 prostate)?
**A.** > 100 µM

**Q.** And the GI50 (CCRF-CEM leukemia)?
**A.** 62.4 µM

**Q.** What about the TGI (CCRF-CEM leukemia) of the same compound?
**A.** > 100 µM

**Q.** What about the GI50 (NCI-H226 lung) of the same compound?
**A.** > 100 µM

**Q.** And the TGI (NCI-H226 lung)?
**A.** > 100 µM

**Q.** And the GI50 (U251 glioblastoma)?
**A.** > 100 µM

**Q.** What about the TGI (U251 glioblastoma) of the same compound?
**A.** > 100 µM

**Q.** What about the GI50 (ACHN renal) of the same compound?
**A.** > 100 µM

**Q.** And the TGI (ACHN renal)?
**A.** > 100 µM

**Q.** And the GI50 (HCC-2998 colon)?
**A.** > 100 µM

**Q.** And the TGI (HCC-2998 colon)?
**A.** > 100 µM

**Q.** And the GI50 (RXF 393 renal)?
**A.** > 100 µM

**Q.** What about the TGI (RXF 393 renal) of the same compound?
**A.** > 100 µM

**Q.** What about the GI50 (RPMI-8226 leukemia) of the same compound?
**A.** > 100 µM

**Q.** And the TGI (RPMI-8226 leukemia)?
**A.** > 100 µM

**Q.** And the GI50 (MALME-3M melanoma)?
**A.** > 100 µM

**Q.** What about the TGI (MALME-3M melanoma) of the same compound?
**A.** > 100 µM

**Q.** And the GI50 (SF-295 CNS)?
**A.** > 100 µM

**Q.** And the TGI (SF-295 CNS)?
**A.** > 100 µM

**Q.** What about the GI50 (A549 NSCLC) of the same compound?
**A.** > 100 µM

**Q.** And the TGI (A549 NSCLC)?
**A.** > 100 µM

**Q.** And the GI50 (HOP-62 NSCLC)?
**A.** > 100 µM

**Q.** And the TGI (HOP-62 NSCLC)?
**A.** > 100 µM

**Q.** What about the GI50 (MDA-MB-231 breast) of the same compound?
**A.** > 100 µM

**Q.** And the TGI (MDA-MB-231 breast)?
**A.** > 100 µM

**Q.** What about the GI50 (HL-60(TB) leukemia) of the same compound?
**A.** > 100 µM

**Q.** What about the TGI (HL-60(TB) leukemia) of the same compound?
**A.** > 100 µM

**Q.** What about the GI50 (SN12C renal) of the same compound?
**A.** > 100 µM

**Q.** What about the TGI (SN12C renal) of the same compound?
**A.** > 100 µM

**Q.** What about the GI50 (KM12 colon) of the same compound?
**A.** > 100 µM

**Q.** What about the TGI (KM12 colon) of the same compound?
**A.** > 100 µM

**Q.** What about the GI50 (SNB-75 CNS) of the same compound?
**A.** > 100 µM

**Q.** What about the TGI (SNB-75 CNS) of the same compound?
**A.** > 100 µM

**Q.** What about the GI50 (SR leukemia) of the same compound?
**A.** > 100 µM

**Q.** What about the TGI (SR leukemia) of the same compound?
**A.** > 100 µM

**Q.** What about the GI50 (NCI/ADR-RES ovarian) of the same compound?
**A.** > 100 µM

**Q.** And the TGI (NCI/ADR-RES ovarian)?
**A.** > 100 µM

**Q.** What about the GI50 (MCF7 breast) of the same compound?
**A.** > 100 µM

**Q.** What about the TGI (MCF7 breast) of the same compound?
**A.** > 100 µM

**Q.** And the GI50 (SK-OV-3 ovarian)?
**A.** 45.2 µM

**Q.** What about the TGI (SK-OV-3 ovarian) of the same compound?
**A.** > 100 µM

**Q.** What about the GI50 (NCI-H460 NSCLC) of the same compound?
**A.** > 100 µM

**Q.** And the TGI (NCI-H460 NSCLC)?
**A.** > 100 µM

**Q.** What about the GI50 (EKVX NSCLC) of the same compound?
**A.** > 100 µM

**Q.** And the TGI (EKVX NSCLC)?
**A.** > 100 µM

**Q.** And the GI50 (OVCAR-3 ovarian)?
**A.** > 100 µM

**Q.** And the TGI (OVCAR-3 ovarian)?
**A.** > 100 µM

**Q.** And the GI50 (NCI-H322M lung)?
**A.** > 100 µM

**Q.** And the TGI (NCI-H322M lung)?
**A.** > 100 µM

**Q.** What about the GI50 (IGROV1 ovarian) of the same compound?
**A.** > 100 µM

**Q.** What about the TGI (IGROV1 ovarian) of the same compound?
**A.** > 100 µM

**Q.** And the GI50 (OVCAR-4 ovarian)?
**A.** 62.9 µM

**Q.** And the TGI (OVCAR-4 ovarian)?
**A.** > 100 µM

**Q.** What about the GI50 (T-47D breast) of the same compound?
**A.** > 100 µM

**Q.** And the TGI (T-47D breast)?
**A.** > 100 µM

**Q.** What about the GI50 (COLO 205 colon) of the same compound?
**A.** > 100 µM

**Q.** And the TGI (COLO 205 colon)?
**A.** > 100 µM

**Q.** What about the GI50 (SK-MEL-5 melanoma) of the same compound?
**A.** > 100 µM

**Q.** What about the TGI (SK-MEL-5 melanoma) of the same compound?
**A.** > 100 µM

**Q.** And the GI50 (HOP-92 NSCLC)?
**A.** > 100 µM

**Q.** And the TGI (HOP-92 NSCLC)?
**A.** > 100 µM

**Q.** What about the GI50 (SF-268 CNS) of the same compound?
**A.** > 100 µM

**Q.** And the TGI (SF-268 CNS)?
**A.** > 100 µM

**Q.** What about the GI50 (SNB-19 CNS) of the same compound?
**A.** > 100 µM

**Q.** And the TGI (SNB-19 CNS)?
**A.** > 100 µM

**Q.** And the GI50 (MOLT-4 leukemia)?
**A.** 73.2 µM

**Q.** What about the TGI (MOLT-4 leukemia) of the same compound?
**A.** > 100 µM

**Q.** And the GI50 (SK-MEL-2 melanoma)?
**A.** > 100 µM

**Q.** And the TGI (SK-MEL-2 melanoma)?
**A.** > 100 µM

**Q.** What about the GI50 (M14 melanoma) of the same compound?
**A.** > 100 µM

**Q.** What about the TGI (M14 melanoma) of the same compound?
**A.** > 100 µM

**Q.** And the GI50 (MDA-MB-435 melanoma)?
**A.** > 100 µM

**Q.** What about the TGI (MDA-MB-435 melanoma) of the same compound?
**A.** > 100 µM

**Q.** What about the GI50 (786-0 renal) of the same compound?
**A.** > 100 µM

**Q.** What about the TGI (786-0 renal) of the same compound?
**A.** > 100 µM

**Q.** What about the GI50 (SW-620 colon) of the same compound?
**A.** > 100 µM

**Q.** What about the TGI (SW-620 colon) of the same compound?
**A.** > 100 µM

**Q.** What about the GI50 (HS 578T breast) of the same compound?
**A.** > 100 µM

**Q.** And the TGI (HS 578T breast)?
**A.** > 100 µM
